“Also recorded” adds a separate entry of the source. Read-outs that look alike come from different tables or passages of the source.
Legend:
[1] = target: T1, HilD (Salmonella typhimurium, UniProt P0CL08); type: binding
[2] = system: Salmonella SPI1 expression (sicA-GFP); type: in vivo, mice
[3] = target: T1, HilD; type: cell-based; conditions: lon mutant
[4] = system: hilA; type: cell-based, Salmonella; conditions: absence of lon, 20 μM
[5] = target: HilD mutant K294A (Salmonella typhimurium, UniProt P0CL08, K294A); type: cell-based; conditions: 20 μM
[6] = system: RtsA; type: binding, Salmonella
[7] = target: wild type HilD (Salmonella typhimurium, UniProt P0CL08); type: cell-based; conditions: 20 μM, wild type HilD strain
[8] = target: HilD mutant K293A (Salmonella typhimurium, UniProt P0CL08, K293A); type: cell-based; conditions: 20 μM
[9] = target: HilC (Salmonella typhimurium, UniProt P0CL09); type: binding
[10] = system: hilA; type: cell-based, Salmonella Typhimurium

HilC, sequence (P0CL09 whole entry): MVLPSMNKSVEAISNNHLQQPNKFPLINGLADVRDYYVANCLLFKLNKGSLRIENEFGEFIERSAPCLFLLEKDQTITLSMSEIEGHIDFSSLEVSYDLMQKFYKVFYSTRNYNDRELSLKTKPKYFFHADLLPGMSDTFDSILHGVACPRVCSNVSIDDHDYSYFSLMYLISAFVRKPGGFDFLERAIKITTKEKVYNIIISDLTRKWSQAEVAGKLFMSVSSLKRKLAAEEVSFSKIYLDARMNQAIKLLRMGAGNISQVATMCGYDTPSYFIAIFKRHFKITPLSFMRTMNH
HilD mutant K293A, sequence (P0CL08 whole entry K293A, looked up): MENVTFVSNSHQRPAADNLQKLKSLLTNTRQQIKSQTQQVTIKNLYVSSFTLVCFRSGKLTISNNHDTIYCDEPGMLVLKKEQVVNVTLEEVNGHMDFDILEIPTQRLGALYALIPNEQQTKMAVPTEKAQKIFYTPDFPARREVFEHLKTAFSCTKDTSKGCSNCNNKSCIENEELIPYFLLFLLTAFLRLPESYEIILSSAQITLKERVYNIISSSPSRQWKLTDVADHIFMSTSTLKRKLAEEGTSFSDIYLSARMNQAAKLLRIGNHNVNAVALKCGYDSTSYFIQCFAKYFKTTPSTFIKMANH
wild type HilD, sequence (P0CL08 whole entry): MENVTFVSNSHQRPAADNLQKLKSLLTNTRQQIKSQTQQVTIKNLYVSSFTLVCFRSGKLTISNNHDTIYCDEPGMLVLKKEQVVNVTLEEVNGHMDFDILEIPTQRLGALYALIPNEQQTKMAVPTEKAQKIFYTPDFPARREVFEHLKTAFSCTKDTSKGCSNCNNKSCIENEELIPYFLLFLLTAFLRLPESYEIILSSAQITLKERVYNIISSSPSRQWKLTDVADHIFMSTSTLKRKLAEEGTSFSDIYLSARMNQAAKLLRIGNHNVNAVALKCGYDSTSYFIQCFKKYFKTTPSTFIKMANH
T1 sequence (P0CL08 whole entry): as above
HilD mutant K294A, sequence (P0CL08 whole entry K294A, looked up): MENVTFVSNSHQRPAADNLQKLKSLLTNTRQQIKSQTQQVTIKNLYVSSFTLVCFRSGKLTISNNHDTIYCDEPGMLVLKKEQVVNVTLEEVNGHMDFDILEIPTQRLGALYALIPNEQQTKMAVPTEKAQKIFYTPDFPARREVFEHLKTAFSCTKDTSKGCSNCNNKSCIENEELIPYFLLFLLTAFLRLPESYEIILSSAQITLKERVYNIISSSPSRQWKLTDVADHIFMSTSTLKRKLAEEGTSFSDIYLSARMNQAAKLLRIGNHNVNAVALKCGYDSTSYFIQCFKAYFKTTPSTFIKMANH

SMILES	binding of HilD to hilA promoter ([1]; 20 μM, 10 nM DNA, 150 μM protein)	binding of HilD to hilA promoter ([1]; 20 μM, 10 nM DNA, 150 μM protein, listed as cis-2-hexadecenoic acid)	binding of HilD to hilA promoter ([1]; 1, 2, 5 and 10 μM)	binding of HilD to hilA promoter ([1]; 1, 2, 5 and 10 μM, listed as cis-2-hexadecenoic acid)	percentage of Salmonella expressing SPI in the gut ([2]; mice n=5/group, P<0.01 vs control)	reduction of percentage of bacteria expressing an invasion gene in the caecum ([2]; mice, 1.5 mM in drinking water, hilD UTR A25G strain) [fold]	effect on HilD stability [3]	hilA expression [4]	reduction of sipB expression [5]	binding of RtsA to hilA promoter [6]	reduction of sipB expression [7] [fold]	reduction of sipB expression [8]	binding of HilC to hilA promoter ([9]; 100 μM)	binding of HilC to hilA promoter ([9]; 100 μM, listed as cis-2-hexadecenoic acid)	binding of HilC to hilA promoter ([9]; 10, 25, 50 and 75 μM)	binding of HilC to hilA promoter ([9]; 10, 25, 50 and 75 μM, listed as cis-2-hexadecenoic acid)	hilA (invasion gene) expression [10]
CCCCCCCCCCCCC/C=C\C(=O)O [2-cis-hexadecenoic acid, (Z)-hexadec-2-enoic acid]	prevented the binding	completely inhibited from binding	partially inhibited binding	did so partially	reduces the percentage	2	no effect	continued to repress	No significant repression	preventing binding; also recorded: partially inhibited binding; also recorded: prevented binding; also recorded: did so partially	~11	No significant repression	preventing binding	prevented binding	partially inhibited binding	did so partially	reduced expression to a lesser degree
CCCCCCCCCCCCC/C=C/C(=O)O [2-trans-hexadecenoic acid, reference compound]									4.5 fold		5.2	4.7 fold					
CCCCCCCCC/C=C\C(=O)O [2-cis-dodecenoic acid, (Z)-dodec-2-enoic acid]									no significant reduction		4.1	no significant reduction					reduced expression to a lesser degree
